# Data taken from patent US20040106150A1, “Inverse labeling method for the rapid identification of marker/target proteins” (priority 2000, published 2004).
# “Also recorded” adds a separate entry of the source.
# Assays:
# HCT116 cells = experiment: Inverse labeling-MS phosphorylation analysis of HCT116 cell lysate treated with Raf inhibitor; format: cell-based, Human; conditions: for Change (treated/control) / Change (treated/control), % down: HCT116 cells, 20 μM, 1.5 hours vs DMSO control
# Experimental: Human colorectal cell line HCT116 cells are grown in 6-well plates. Prior to harvesting, the cells are treated with 20 μM of the Raf inhibitor BPMI and DMSO control for 1.5 hours, respectively. Cells are then rinsed with PBS, and lysed for 5 mintues at 4° C. in Doriano lysis buffer with 100 μg/mL Perfabloc/2 μg/mL aprotinin/2 μg/mL leupeptin/1 mM NaVO4/10 mM NaF. The supernatant of the lysates are collected after centrifugation at 3,000 rpm for 5 minutes. The protein concentration is determined using Bio-Rad reagent, and the lysates are frozen at −80° C. prior to further processing and analysis.
# One μL of RNase A (20 mg/mL, Sigma, St Louis, Mo.) and 1 μL of RNase T1 (10 units/mL, Invitrogen, Carlsbad, Calif.) are added to each 1 mL of lysates (total 3 mg of HCT116-DMSO control and 3 mg of HCT116-BPMI, respectively), and incubated at 37° C. for half an hour to degrade RNAs. Proteins are denatured using 6 M guanidine HCl, followed by reduction with 20 mM 1,4-dithio-DL-threitol (DTT) at 58° C. for 40 minutes and alkylation with 40 mM iodoacetamide at room temperature for 30 minutes in the dark. Each protein solution is transferred to a Slide-A-Lyzer ( 10,000 MW cutoff, Pierce, Rockford, Ill.) dialysis cassette and dialyzed against 2 to 0 M urea/50 mM ammonium bicarbonate to remove small molecule impurities and buffer exchange to 50 mM ammonium bicarbonate. Proteolysis is carried out using modified, sequencing grade trypsin (Promega, Madison, Wis.) at a 1:200 trypsin-to-protein ratio (wt:wt) in 50 mM ammonium bicarbonate at 37° C. overnight.
# The peptide digests are filtered through Centricon Filters (10,000 MW cutoff, Millipore, Bedford, Mass.) to remove large molecule impurities including detergents. Flow-through (peptides) is collected. Solvent and ammonium bicarbonate are subsequently removed by SpeedVac drying.
# d0- or d3-methanolic HCl (2 M) (methyl esterification reagent) is prepared by adding 160 μL of acetyl chloride to 1 mL of anhydrous d0-methyl alcohol or d3-methyl d-alcohol drop wise while stirring. After 10 minutes, 1 mL of the methyl esterification reagent is added to 1.5 mg of lyophilized peptide mixture. The reaction is performed in parallel to two identical aliquots for every sample, one using d0-reagent and one using d3-reagent, respectively. The reaction is allowed to proceed at room temperature for 30 minutes. The excess reagents are removed by SpeedVac drying. Subsequently the peptide mixtures are reconstituted with water. The inverse labeling is achieved by mixing d0-control with d3-treated (BPMI) and d3-control with d0-treated.
# Enrichment of phosphopeptides is performed on a 2.1×30 mm IMAC column (POROS 20 MC, Applied Biosystems, Foster City, Calif.). Briefly, the column is washed with water, 100 mM EDTA in 1 M NaCl, followed by water and 1% acetic acid. The column is then activated with 100 mM FeCl3. The SpeedVac dried, 1 mg of the inversely-labeled methyl esterified peptide mixture (500 μg each form of d0 and d3) is dissolved in 1% acetic acid in 50% acetonitrile/water, and loaded onto iron-activated IMAC column. The unbound peptides are removed by washing with 1% acetic acid in 50% acetonitrile/water ([…]). The bound phosphopeptides are eluted with 2% ammonium hydroxide in 50% acetonitrile/water. Acetic acid is added to neutralize the eluent prior to SpeedVac drying. The phosphopeptide mixture is reconstituted with 0.1% formic acid and analyzed using capillary LC/MS, as described below.
# An Ultimate capillary/nano HPLC system (LC Packings, San Francisco, Calif.) with a Swichos micro column-switching module (LC Packings, San Francisco, Calif.) is used for analysis. Separation is carried out on a 0.18×50 mm capillary column, packed with 3 μm C18 stationary phase of 300-Å pore size (PepMap, LC Packings, San Francisco, Calif.), operating at a flow rate of 2 μL/min. Mobile phase A consists of 0.1% (v/v) formic acid in water and mobile phase B of 0. 1% (v/v) formic acid in acetonitrile. […]
# tumor tissue DU145 = experiment: Inverse labeling-MS phosphorylation analysis of tissue lysate of mouse tumor xenograft (tumor tissue DU145), in vivo study; set-up: Change (treated/control), % down: concentration or dose not given beside the values; conditions: for Change (treated/control) / Change (treated/control), % down: tumor tissue, 1 hour treatment
# Experimental: The phosphoproteome mapping method is further tested/applied to an in vivo study of the Raf inhibitor, BPMI (1-hour treatment) in the analysis of tissue lysate of mouse tumor xenograft. […] Although the usual 1 mg of lysate is processed and IMAC enriched, considering the overwhelming blood protein contamination, the actual amount of tissue lysate proteins in the sample is a lot less. For that reason, only 0.05% β-casein is spiked into each tissue lysate sample as internal standard. The methyl esterification/IMAC procedure is successful in removing the blood contamination from the tissue samples. As shown in FIG. 15 (B), inverse labeling-MS analysis after IMAC enrichment clearly detects the down-regulation of Ser^25 phosphorylation of oncoprotein 18, confirming the finding of the cellular studies. Additional changes in phosphorylation are also detected which includes oncogene EMS1, mouse fetuin and Epithelial-cadherin (see Table 3).
# [1] = phosphopeptide ASGQAFELILpSPR, Oncoprotein 18
# [2] = phosphopeptide IEpSPKLER, Heat-shock 110 kD protein
# [3] = phosphopeptide LPpSSPVYEDAASFK, Oncogene EMS1
# [4] = phosphopeptide RLpSPSApSPPR, Ser/Arg-related nuclear matrix protein
# [5] = phosphopeptide SKESVPEFPLpSPPK, Oncoprotein 18
# [6] = phosphopeptide pTQTPPVpSPAPQPTEER, Oncogene EMS1
# [7] = phosphopeptide MRDWVIPPIpSCPENEK, Epithelial-cadherin (mouse/human)
# [8] = phosphopeptide VoxMHTQCHSTPDpSAEDVR, Mouse fetuin
structure (smiles),measurement,setting,value
"CC(C)(C)c1ccc(Nc2ncc(Cc3ccncc3)c3ccccc23)cc1 [BPMI, 1-(4-t-butylanilino)-4-[(pyridin-4-yl)-methyl]-isoquinoline]",OP18 (oncoprotein 18) Ser25 phosphorylation,"HCT116 cells; HCT116 cell lysate, treated vs control",significantly down-regulated; also recorded: Down-regulation
same,Change (treated/control),HCT116 cells; [1],0.4
same,"Change (treated/control), % down",HCT116 cells; [1],60%
same,Change (treated/control),HCT116 cells; [2],0.7
same,"Change (treated/control), % down",HCT116 cells; [2],30%
same,Change (treated/control),HCT116 cells; [3],0.8
same,"Change (treated/control), % down",HCT116 cells; [3],20%
same,Change (treated/control),HCT116 cells; [4],0.7
same,"Change (treated/control), % down",HCT116 cells; [4],30%
same,Change (treated/control),HCT116 cells; [5],0.6
same,"Change (treated/control), % down",HCT116 cells; [5],40%
same,Change (treated/control),HCT116 cells; [6],0.8
same,"Change (treated/control), % down",HCT116 cells; [6],20%
same,Ser25 phosphorylation of oncoprotein 18 (OP18),"tumor tissue DU145; in vivo, tumor tissue DU145, 1-hour treatment",down-regulation
same,Change (treated/control),tumor tissue DU145; [1],0.4
same,"Change (treated/control), % down",tumor tissue DU145; [1],60%
same,Change (treated/control),tumor tissue DU145; [3],0.7
same,"Change (treated/control), % down",tumor tissue DU145; [3],30%
same,Change (treated/control),tumor tissue DU145; [7],0.5
same,"Change (treated/control), % down",tumor tissue DU145; [7],50%
same,Change (treated/control),tumor tissue DU145; [5],0.8
same,"Change (treated/control), % down",tumor tissue DU145; [5],20%
same,Change (treated/control),tumor tissue DU145; [8],0.6
same,"Change (treated/control), % down",tumor tissue DU145; [8],40%
same,Change (treated/control),tumor tissue DU145; [6],0.6
same,"Change (treated/control), % down",tumor tissue DU145; [6],40%
